Values quoted from earlier work, collected in PubChem BioAssay AID1259409 (Chemical Carcinogenesis Research Information System (CCRIS), 2018).
Several values for one entry are separate records, joined by “and”; a condition that tells them apart may be missing. Identical values can stand only once.

Tested on: rodent chemically induced tumor inhibition, incidence and multiplicity
Assay: CCRIS tumor inhibitor studies
Conditions: Carcinogen: 7,12-DIMETHYLBENZ[A]ANTHRACENE, 57-97-6, Dose [Inhibitor]: 0, Species: MOUSE

| Structure (SMILES) | tumour outcome (control, treated, inhibition, significance) (26 MG/KG BW 1/WK FOR 4 WK BEGINNING POST CARCINOGEN DOSE (STUDY DURATION: 4 MO), Route [Inhibitor]: SUBCUTANEOUS, Strain/Sex: ICR/FEMALE, Target Tissue: Type of Lesion: LUNG: TUMOR, Dose [Carcinogen]: 1 MG/KG BW ONCE ADMINISTERED TO NEONATAL MICE, Promoter: NONE USED) | tumour outcome (control, treated, inhibition, significance) (26 MG/KG BW 1/WK FOR 4 WK BEGINNING POST CARCINOGEN DOSE (STUDY DURATION: 4 MO), Route [Inhibitor]: SUBCUTANEOUS, Strain/Sex: ICR/FEMALE, Target Tissue: Type of Lesion: LUNG: TUMOR, Dose [Carcinogen]: 10 MG/KG BW ONCE ADMINISTERED TO NEONATAL MICE, Promoter: NONE USED) | tumour outcome (control, treated, inhibition, significance) (26 MG/KG BW 1/WK FOR 4 WK BEGINNING POST CARCINOGEN DOSE (STUDY DURATION: 4 MO), Route [Inhibitor]: SUBCUTANEOUS, Strain/Sex: ICR/MALE, Target Tissue: Type of Lesion: LUNG: TUMOR, Dose [Carcinogen]: 1 MG/KG BW ONCE ADMINISTERED TO NEONATAL MICE, Promoter: NONE USED) | tumour outcome (control, treated, inhibition, significance) (26 MG/KG BW 1/WK FOR 4 WK BEGINNING POST CARCINOGEN DOSE (STUDY DURATION: 4 MO), Route [Inhibitor]: SUBCUTANEOUS, Strain/Sex: ICR/MALE, Target Tissue: Type of Lesion: LUNG: TUMOR, Dose [Carcinogen]: 10 MG/KG BW ONCE ADMINISTERED TO NEONATAL MICE, Promoter: NONE USED) | tumour outcome (control, treated, inhibition, significance) (26 MG/KG BW 1/WK FOR 4 WK BEGINNING POST CARCINOGEN DOSE (STUDY DURATION: 6 MO), Route [Inhibitor]: SUBCUTANEOUS, Strain/Sex: ICR/MALE, Target Tissue: Type of Lesion: LIVER: TUMOR, Dose [Carcinogen]: 10 MG/KG BW ONCE ADMINISTERED TO NEONATAL MICE, Promoter: NONE USED) | tumour outcome (control, treated, inhibition, significance) (26 MG/KG BW 1/WK FOR 4 WK BEGINNING POST CARCINOGEN DOSE (STUDY DURATION: 6 MO), Route [Inhibitor]: SUBCUTANEOUS, Strain/Sex: ICR/MALE, Target Tissue: Type of Lesion: LUNG: TUMOR, Dose [Carcinogen]: 1 MG/KG BW ONCE ADMINISTERED TO NEONATAL MICE, Promoter: NONE USED) | tumour outcome (control, treated, inhibition, significance) (26 MG/KG BW 1/WK FOR 4 WK BEGINNING POST CARCINOGEN DOSE (STUDY DURATION: 6 MO), Route [Inhibitor]: SUBCUTANEOUS, Strain/Sex: ICR/MALE, Target Tissue: Type of Lesion: LUNG: TUMOR, Dose [Carcinogen]: 10 MG/KG BW ONCE ADMINISTERED TO NEONATAL MICE, Promoter: NONE USED) | tumour outcome (control, treated, inhibition, significance) (256 NMOL 15 D POST INITIATION DOSE FOLLOWED BY 2.56 NMOL 2/WK DURING WK 3-22 APPLIED 15 MIN PRIOR TO EACH PROMOTION D, Route [Inhibitor]: DERMAL, Strain/Sex: CD-1/FEMALE, Target Tissue: Type of Lesion: SKIN: PAPILLOMA, Dose [Carcinogen]: 20 NMOL IN 200 µL ACETONE ONCE) | tumour outcome (control, treated, inhibition, significance) (256 NMOL 15 D POST INITIATION DOSE FOLLOWED BY 2.56 UMOL 2/WK DURING WK 3-22 APPLIED 15 MIN PRIOR TO EACH PROMOTION D, Route [Inhibitor]: DERMAL, Strain/Sex: CD-1/FEMALE, Target Tissue: Type of Lesion: SKIN: PAPILLOMA, Dose [Carcinogen]: 20 NMOL IN 200 µL ACETONE ONCE) | tumour outcome (control, treated, inhibition, significance) (256 NMOL 15 D POST INITIATION DOSE FOLLOWED BY 25.6 NMOL 2/WK DURING WK 3-22 APPLIED 15 MIN PRIOR TO EACH PROMOTION D, Route [Inhibitor]: DERMAL, Strain/Sex: CD-1/FEMALE, Target Tissue: Type of Lesion: SKIN: PAPILLOMA, Dose [Carcinogen]: 20 NMOL IN 200 µL ACETONE ONCE) | tumour outcome (control, treated, inhibition, significance) (256 NMOL 15 D POST INITIATION DOSE FOLLOWED BY 25.6 PMOL 2/WK DURING WK 3-22 APPLIED 15 MIN PRIOR TO EACH PROMOTION D, Route [Inhibitor]: DERMAL, Strain/Sex: CD-1/FEMALE, Target Tissue: Type of Lesion: SKIN: PAPILLOMA, Dose [Carcinogen]: 20 NMOL IN 200 µL ACETONE ONCE) | tumour outcome (control, treated, inhibition, significance) (256 NMOL 15 D POST INITIATION DOSE FOLLOWED BY 256 NMOL 2/WK DURING WK 3-22 APPLIED 15 MIN PRIOR TO EACH PROMOTION DO, Route [Inhibitor]: DERMAL, Strain/Sex: CD-1/FEMALE, Target Tissue: Type of Lesion: SKIN: PAPILLOMA, Dose [Carcinogen]: 20 NMOL IN 200 µL ACETONE ONCE) | tumour outcome (control, treated, inhibition, significance) (256 NMOL 15 D POST INITIATION DOSE FOLLOWED BY 256 PMOL 2/WK DURING WK 3-22 APPLIED 15 MIN PRIOR TO EACH PROMOTION DO, Route [Inhibitor]: DERMAL, Strain/Sex: CD-1/FEMALE, Target Tissue: Type of Lesion: SKIN: PAPILLOMA, Dose [Carcinogen]: 20 NMOL IN 200 µL ACETONE ONCE) |
| --- | --- | --- | --- | --- | --- | --- | --- | --- | --- | --- | --- | --- | --- |
| C[n+]1ccc(-c2cc[n+](C)cc2)cc1 | 4/10 (40%), 2/9 (22%), 45%, not calculated | 9/11 (82%), 4/7 (57%), 30%, not calculated | 2/10 (20%), 0/9 (0%), 100%, not calculated | 9/11 (82%), 4/9 (44%), 46%, not calculated | 4/11 (36%), 2/17 (12%), 67%, not calculated | 3/10 (30%), 1/9 (11%), 63%, not calculated | 9/11 (82%), 13/17 (76%), 7%, not calculated |  |  |  |  |  |  |
| CC(=O)OC12C[C@@H](C)[C@@]3(O)[C@@H](C=C(CO)C[C@]4(O)C(=O)C(C)=C[C@@H]34)C1C2(C)C (stereo partly drawn) |  |  |  |  |  |  |  | 100%, 95%, 5%, not calculated | 94%, 40%, 57%, not calculated | 94%, 83%, 12%, not calculated and 100%, 80%, 20%, not calculated | 100%, 97%, 3%, not calculated | 94%, 33%, 65%, not calculated and 100%, 58%, 42%, not calculated | 100%, 100%, 0%, not significant |
